Data from US20220153741A1, “HETEROCYCLIC COMPOUNDS AS INHIBITORS OF KRAS G12C” (Guangdong Newopp Biopharmaceuticals Co., Ltd., priority 2019, published 2022).

How the values were obtained:
[1] = from CC(C)c1cccc(NCC(=O)O)c1-n1c(=O)[nH]c(=O)c2cc(F)c(-c3c(N)cccc3F)nc21; amide bond; TCFH/N-methylimidazole/pyridine; MeCN/DMF (1:1); 66.0 mM; 11.0 h
[2] = system: NCI-H358 (H358, KRAS G12C) cancer cell line; test: 3D proliferation assay, NCI-H358 (CellTiter-Glo); type: cell-based; conditions: 96-well spheroid plate, 4 days
Protocol: (§1) 3D proliferation assay: NCI-H358 (H358, KRAS G12C) and LS513 (KRAS G12D) cancer cell lines were obtained from ATCC (American Type Culture Collection, VA). Cells were plated in 96-well spheroid plate (CORNING INC, NY)) in RPMI-1640 with 10% FBS. Compounds (11-point dilutions) and DMSO were added to the wells and incubated with cells for 4 days at 37° C. Cell viability was then determined by CellTiter-Glo (Promega, WI). IC50 values of compounds were determined as the concentration of 50% inhibition of cell viability compared to DMSO treated cells (A: IC50<0.1 μM; B: IC50 between 0.1 μM and 1 μM; C: IC50 between 1 μM and 10 μM; D: >10 μM; ND: not determined).

[3] = system: LS513 (KRAS G12D) cancer cell line; test: 3D proliferation assay, LS513 (CellTiter-Glo); type: cell-based; conditions: 96-well spheroid plate, 4 days
Protocol: as §1

[4] = system: pERK1/2 in NCI-H358 cells; test: Phospho-ERK (pERK) assay in NCI-H358 cells; type: cell-based; conditions: 3 hours compound treatment, pERK1/2 antibody fluorescence
Protocol: Phospho-ERK (pERK) assay: NCI-H358 cells were seeded in 96-well plates (Greiner) in RPMI-1640 with 10% FBS 16 hours prior to compound treatment. Serial dilution of compounds was made and added to wells, and then incubated at 37° C. for 3 hours. After the treatment, cells were fixed with 3.7% formaldehyde (VWR) for 20 min at RT, followed by being permeabilized with ice-cold methanol at −20° C. for 20 min. The methanol was then dumped and replaced with Intercept® (PBS) Blocking Buffer (LiCOR) supplemented with 0.05% Tween-20 and incubated at RT for 1 hour with gentle rocking. The blocking buffer was then replaced with the blocking buffer containing pERK1/2 antibody (Cell Signaling) and incubated at 4° C. overnight with gentle rocking. The plate was washed 5 times with 1×PBS+0.1% Tween-20. The blocking buffer containing LiCOR IRDye 680RD secondary antibody (LiCOR,) was then added and incubated for 1 hour at RT with gentle rocking. After washing 5 times with 1×PBS+0.1% Tween-20, the plate was read using CLARIOstar plate reader (BMG LABTECH GmbH). IC50 values were determined as the concentration of 50% inhibition of the fluorescence signal compared to DMSO treated cells (A: IC50<0.1 μM; B: IC50 between 0.1 μM and 1 μM; C: IC50 between 1 μM and 10 μM; D: >10 μM; ND: not determined).

Row | IC50 [2] [µM] | IC50 [3] [µM] | IC50 ([4]; Homo sapiens, NCI-H358, 3 h) [µM] | IC50 [4] [µM] | IC50 ([2]; Homo sapiens, NCI-H358, 96 h) [µM] | IC50 ([3]; Homo sapiens, LS-513, 96 h) [µM] | Compound | ring closure, yield of all isomers [1] [%]
1 | – | – | – | – | – | – | CC(C)c1cccc2c1-n1c(=O)[nH]c(=O)c3cc(F)c(nc31)-c1c(F)cccc1NC(=O)CN2 | 32.7
2 | < 0.1 | > 10 | < 0.1 | – | – | – | C=CC(=O)N1CCN(c2nc(=O)n3c4nc(c(F)cc24)-c2c(F)cccc2NCCCc2ccnc(C(C)C)c2-3)[C@@H](C)C1 (single isomer, unassigned) [Example 2A] | –
3 | 0.1 to 1 | > 10 | – | 0.1 to 1 | – | – | C=CC(=O)N1CCN(c2nc(=O)n3c4nc(c(F)cc24)-c2c(F)cccc2NCCCc2ccnc(C(C)C)c2-3)[C@@H](C)C1 (single isomer, unassigned) [Example 2B] | –
4 | – | – | 0.1 to 1 | – | < 0.1 | > 10 | C=CC(=O)N1CCN(c2nc(=O)n3c4nc(c(F)cc24)-c2c(F)cccc2NC(=O)CCc2ccnc(C(C)C)c2-3)[C@@H](C)C1 [Example 1, (S)-2^4-(4-Acryloyl-2-methylpiperazin-1-yl)-2^6,3^6-difluoro-1^2-isopropyl-2^1,2^2-dihydro-4-aza-2(1,7)-pyrido[2,3-d]pyrimidina-1(3,4)-pyridina-3(1,2)-benzenacycloheptaphane-2^2,5-dione] | –
5 | – | – | < 0.1 | – | < 0.1 | > 10 | C=CC(=O)N1CCN(c2nc(=O)n3c4nc(c(F)cc24)-c2c(F)cccc2N(C)CCCc2ccnc(C(C)C)c2-3)[C@@H](C)C1 [Example 4, (S)-2^4-(4-acryloyl-2-methylpiperazin-1-yl)-2^6,3^6-difluoro-1^2-isopropyl-4-methyl-2^1,2^2-dihydro-4-aza-2(1,7)-pyrido[2,3-d]pyrimidina-1(3,4)-pyridina-3(1,2)-benzenacycloheptaphan-2^2-one] | –
6 | – | – | 0.1 to 1 | – | 0.1 to 1 | > 10 | C=CC(=O)N1C[C@H](C)N(c2nc(=O)n3c4nc(c(F)cc24)-c2c(F)cccc2NCCCc2ccnc(C(C)C)c2-3)C[C@H]1C [Example 7A, 2^4-((2S,5R)-4-acryloyl-2,5-dimethylpiperazin-1-yl)-2^6,3^6-difluoro-1^2-isopropyl-2^1,2^2-dihydro-4-aza-2(1,7)-pyrido[2,3-d]pyrimidina-1(3,4)-pyridina-3(1,2)-benzenacycloheptaphan-2^2-one] | –
7 | < 0.1 | > 10 | – | < 0.1 | – | – | C=CC(=O)N1C[C@H](C)N(c2nc(=O)n3c4nc(c(F)cc24)-c2c(F)cccc2NCCCc2ccnc(C(C)C)c2-3)C[C@H]1C [Example 7B, 2^4-((2S,5R)-4-acryloyl-2,5-dimethylpiperazin-1-yl)-2^6,3^6-difluoro-1^2-isopropyl-2^1,2^2-dihydro-4-aza-2(1,7)-pyrido[2,3-d]pyrimidina-1(3,4)-pyridina-3(1,2)-benzenacycloheptaphan-2^2-one] | –
8 | – | – | < 0.1 | – | < 0.1 | > 10 | C=CC(=O)N1CCN(c2nc(=O)n3c4nc(c(F)cc24)-c2c(F)cccc2NCCSc2ccnc(C(C)C)c2-3)[C@@H](C)C1 [Example 9, (S)-2^4-(4-acryloyl-2-methylpiperazin-1-yl)-2^6,3^6-difluoro-1^2-isopropyl-2^1,2^2-dihydro-7-thia-4-aza-2(1,7)-pyrido[2,3-d]pyrimidina-1(3,4)-pyridina-3(1,2)-benzenacycloheptaphan-2^2-one] | –
9 | – | – | < 0.1 | – | < 0.1 | > 10 | C=CC(=O)N1CCN(c2nc(=O)n3c4nc(c(F)cc24)-c2c(Cl)cccc2NCCCc2ccnc(C(C)C)c2-3)[C@@H](C)C1 [Example 10, (S)-2^4-(4-acryloyl-2-methylpiperazin-1-yl)-3^6-chloro-2^6-fluoro-1^2-isopropyl-2^1,2^2-dihydro-4-aza-2(1,7)-pyrido[2,3-d]pyrimidina-1(3,4)-pyridina-3(1,2)-benzenacycloheptaphan-2^2-one] | –
10 | – | – | 0.1 to 1 | – | 0.1 to 1 | > 10 | C=CC(=O)N1CCN(c2nc(=O)n3c4nc(c(F)cc24)-c2c(F)cccc2N(C(=O)C(C)(C)O)CCCc2ccnc(C(C)C)c2-3)[C@@H](C)C1 [Example 15, (S)-2^4-(4-acryloyl-2-methylpiperazin-1-yl)-2^6,3^6-difluoro-4-(2-hydroxy-2-methylpropanoyl)-1^2-isopropyl-2^1,2^2-dihydro-4-aza-2(1,7)-pyrido[2,3-d]pyrimidina-1(3,4)-pyridina-3(1,2)-benzenacycloheptaphan-2^2-one] | –
11 | – | – | 0.1 to 1 | – | < 0.1 | 1 to 10 | C=CC(=O)N1CCN(c2nc(=O)n3c4nc(c(F)cc24)-c2c(F)cccc2NCCCc2cccc(C(C)C)c2-3)[C@@H](C)C1 [Example 17, (S)-2^4-(4-acryloyl-2-methylpiperazin-1-yl)-2^6,3^6-difluoro-1^6-isopropyl-2^1,2^2-dihydro-4-aza-2(1,7)-pyrido[2,3-d]pyrimidina-1,3(1,2)-dibenzenacycloheptaphan-2^2-one] | –
12 | – | – | < 0.1 | – | < 0.1 | 1 to 10 | C=CC(=O)N1CCN(c2nc(=O)n3c4nc(c(F)cc24)-c2c(F)cccc2N(C)CCCc2cccc(C(C)C)c2-3)[C@@H](C)C1 [Example 19, (S)-2^4-(4-acryloyl-2-methylpiperazin-1-yl)-2^6,3^6-difluoro-1^6-isopropyl-4-methyl-2^1,2^2-dihydro-4-aza-2(1,7)-pyrido[2,3-d]pyrimidina-1,3(1,2)-dibenzenacycloheptaphan-2^2-one] | –
13 | – | – | < 0.1 | – | < 0.1 | > 10 | C=CC(=O)N1C[C@H](C)N(c2nc(=O)n3c4nc(c(F)cc24)-c2c(F)cccc2NCCCc2cccc(C(C)C)c2-3)C[C@H]1C [Example 20, 2^4-((2S,5R)-4-acryloyl-2,5-dimethylpiperazin-1-yl)-2^6,3^6-difluoro-1^6-isopropyl-2^1,2^2-dihydro-4-aza-2(1,7)-pyrido[2,3-d]pyrimidina-1,3(1,2)-dibenzenacycloheptaphan-2^2-one] | –
14 | – | – | 0.1 to 1 | – | < 0.1 | 0.1 to 1 | C=CC(=O)N1CCN(c2nc(=O)n3c4nc(c(F)cc24)-c2c(F)cccc2NCCCNc2cccc(C(C)C)c2-3)[C@@H](C)C1 [Example 22, (S)-2^4-(4-acryloyl-2-methylpiperazin-1-yl)-2^6,3^6-difluoro-1^6-isopropyl-2^1,2^2-dihydro-4,8-diaza-2(1,7)-pyrido[2,3-d]pyrimidina-1,3(1,2)-dibenzenacyclooctaphan-2^2-one] | –
15 | – | – | 0.1 to 1 | – | < 0.1 | > 10 | C=CC(=O)N1CCN(c2nc(=O)n3c4nc(c(F)cc24)-c2c(F)cccc2NCCCN(C)c2cccc(C(C)C)c2-3)[C@@H](C)C1 [Example 28, (S)-2^4-(4-acryloyl-2-methylpiperazin-1-yl)-2^6,3^6-difluoro-1^6-isopropyl-8-methyl-2^1,2^2-dihydro-4,8-diaza-2(1,7)-pyrido[2,3-d]pyrimidina-1,3(1,2)-dibenzenacyclooctaphan-2^2-one] | –
16 | < 0.1 | > 10 | – | – | – | – | C=CC(=O)N1CCN(c2nc(=O)n3c4nc(c(F)cc24)-c2c(F)cccc2NC(=O)CCN(C)c2cccc(C(C)C)c2-3)C(C)C1 [Example 29, (S)-2^4-(4-acryloyl-2-methylpiperazin-1-yl)-2^6,3^6-difluoro-1^6-isopropyl-8-methyl-2^1,2^2-dihydro-4,8-diaza-2(1,7)-pyrido[2,3-d]pyrimidina-1,3(1,2)-dibenzenacyclooctaphane-2^2,5-dione] | –
17 | – | – | – | – | < 0.1 | > 10 | C=CC(=O)N1C[C@H](C)N(c2nc(=O)n3c4nc(c(F)cc24)-c2c(F)cccc2NC(=O)CCN(C)c2cccc(C(C)C)c2-3)C[C@H]1C [Example 30, 2^4-((2S,5R)-4-acryloyl-2,5-dimethylpiperazin-1-yl)-2^6,3^6-difluoro-1^6-isopropyl-8-methyl-2^1,2^2-dihydro-4,8-diaza-2(1,7)-pyrido[2,3-d]pyrimidina-1,3(1,2)-dibenzenacyclooctaphane-2^2,5-dione] | –
18 | < 0.1 | > 10 | – | < 0.1 | – | – | (S)-2^4-(4-acryloyl-2-methylpiperazin-1-yl)-2^6,3^6-difluoro-1^2-isopropyl-2^1,2^2-dihydro-8-thia-4-aza-2(1,7)-pyrido[2,3-d]pyrimidina-1(3,4)-pyridina-3(1,2)-benzenacyclooctaphan-2^2-one [Example 8] | –
